# Laboratory results as given in ChEMBL document CHEMBL1201862, “PubChem BioAssay data set” (2004).
#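 Briefly, cells in 96-well plates were exposed to five compound concentrations for 48 h, and endpoints were estimated by linear interpolation. Abbreviation: GI50, concentration required for 50% inhibition of growth.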 The source made the active and inactive calls. Cut-off read from the data, not from the text of the source: active = GI50 up to about 1.1 µM and inactive = higher.
# Experiments:
# Assay in all cases: NCI anticancer screen, dose series, 48 h
# [1] = system: MOLT-4
# [2] = system: ACHN
# [3] = system: Hs-578T
# [4] = system: NCI-H23
# [5] = system: RXF 393
# [6] = system: OVCAR-4
# [7] = system: SNB-19
# [8] = system: HCC 2998
# [9] = system: MDA-MB-435
# [10] = system: HOP-62
# [11] = system: EKVX
# [12] = system: SF-295
# [13] = system: SW-620
# [14] = system: A498
# [15] = system: 786-0
# [16] = system: A549
# [17] = system: CCRF-CEM
# [18] = system: SNB-75
# [19] = system: DU-145
# [20] = system: NCI/ADR-RES
# [21] = system: OVCAR-8
# [22] = system: SR
# [23] = system: PC-3
# [24] = system: MDA-N
# [25] = system: LOX IMVI
# [26] = system: SF-539
# [27] = system: COLO 205
# [28] = system: HL-60
# [29] = system: BT-549
# [30] = system: NCI-H460
# [31] = system: Malme-3M
# [32] = system: HOP-92
# [33] = system: UO-31
# [34] = system: MCF7
# [35] = system: CAKI-1
# [36] = system: SN12C
# [37] = system: SK-MEL-2
# [38] = system: UACC-62
# [39] = system: HCT-15
# [40] = system: RPMI-8226
# [41] = system: SF-268
# [42] = system: K562
# [43] = system: KM12
# [44] = system: SK-MEL-28
# [45] = system: OVCAR-5
# [46] = system: TK-10
# [47] = system: T47D
# [48] = system: UACC-257
# [49] = system: NCI-H522
# [50] = system: IGROV-1
# [51] = system: HCT-116
# [52] = system: MDA-MB-231
# [53] = system: HT-29
# [54] = system: SK-OV-3
# [55] = system: U-251
# [56] = system: M14
# [57] = system: OVCAR-3
# [58] = system: NCI-H226
# [59] = system: SK-MEL-5
structure (smiles),measurement,setting,value
CSc1c(C#N)c(N)nc2c(/N=N\c3ccc(Cl)cc3)c(N)nn12,GI50,[1],2.44 µM (inactive)
same,GI50,[2],5.66 µM (inactive)
same,GI50,[3],1.23 µM (inactive)
same,GI50,[4],2.6 µM (inactive)
same,GI50,[5],2.55 µM (inactive)
same,GI50,[6],2.64 µM (inactive)
same,GI50,[7],17.3 µM (inactive)
same,GI50,[8],5.94 µM (inactive)
same,GI50,[9],9.89 µM (inactive)
same,GI50,[10],10.7 µM (inactive)
same,GI50,[11],0.34 µM (active)
same,GI50,[12],22.9 µM (inactive)
same,GI50,[13],2.16 µM (inactive)
same,GI50,[14],39.2 µM (inactive)
same,GI50,[15],2.86 µM (inactive)
same,GI50,[16],25 µM (inactive)
same,GI50,[17],2.17 µM (inactive)
same,GI50,[18],7.41 µM (inactive)
same,GI50,[19],2.24 µM (inactive)
same,GI50,[20],16.8 µM (inactive)
same,GI50,[21],2.08 µM (inactive)
same,GI50,[22],2.55 µM (inactive)
same,GI50,[23],2.7 µM (inactive)
same,GI50,[24],8.04 µM (inactive)
same,GI50,[25],1.52 µM (inactive)
same,GI50,[26],5.85 µM (inactive)
same,GI50,[27],13.5 µM (inactive)
same,GI50,[28],2.31 µM (inactive)
same,GI50,[29],2.94 µM (inactive)
same,GI50,[30],11.1 µM (inactive)
same,GI50,[31],6.08 µM (inactive)
same,GI50,[32],3.29 µM (inactive)
same,GI50,[33],2.13 µM (inactive)
same,GI50,[34],2.17 µM (inactive)
same,GI50,[35],18.7 µM (inactive)
same,GI50,[36],3.17 µM (inactive)
same,GI50,[37],2.87 µM (inactive)
same,GI50,[38],3.33 µM (inactive)
same,GI50,[39],2.26 µM
same,GI50,[40],2.6 µM (inactive)
same,GI50,[41],2.39 µM (inactive)
same,GI50,[42],2.08 µM (inactive)
same,GI50,[43],6.14 µM (inactive)
same,GI50,[44],2.58 µM (inactive)
same,GI50,[45],17.3 µM (inactive)
same,GI50,[46],13.3 µM (inactive)
same,GI50,[47],1.67 µM (inactive)
same,GI50,[48],3.27 µM (inactive)
same,GI50,[49],6.19 µM (inactive)
same,GI50,[50],1.85 µM (inactive)
same,GI50,[51],7.87 µM (inactive)
same,GI50,[52],2.04 µM (inactive)
same,GI50,[53],3.34 µM (inactive)
same,GI50,[54],33 µM (inactive)
same,GI50,[55],4.33 µM (inactive)
same,GI50,[56],18.6 µM (inactive)
same,GI50,[57],1.85 µM (inactive)
same,GI50,[58],16.9 µM (inactive)
same,GI50,[59],14.6 µM (inactive)
